Experimental data: patent US6248905A, “Acyl derivatives of glycosyl-L-ascorbic acid” (priority 1998, dated 2001)
One block for each compound: values may come before it.

Tests used:
[1] = test system: guinea pigs with scorbutus; assay: Anti-scorbutus test; format: in vivo, male Hurtley's guinea pigs; conditions: for days needed to recover maximum body weight before initiating the administration: oral, 56.80 μmol/head/shot once every morning
Method: In accordance with the method as reported in Journal of Pharmacobio-Dynamics, Vol. 13, pp. 688-695 (1990) by the present inventors, male Hurtley's guinea pigs, 4-week-old, were bred under free intake of water and vitamin C-defective food, commercialized by Oriental Yeast Co., Ltd., Tokyo, Japan, while the guinea pigs were weighed every morning at a prescribed time as an index of the symptom of anti-scorbutus disease. […] In parallel, one group as a control, in which guinea pigs were administered with only a fresh preparation of the same water free of the specimens, was provided and treated similarly as in the groups with the specimens.

[2] = physchem; conditions: phosphate buffer, pH 7
Method: To the solution was added 9.8 ml of 100 mM phosphate buffered aqueous solution (pH 7.0), and the aqueous solution was sterilized, and then incubated at 37° C. or 60° C. while the aqueous solution was sampled at prescribed times, followed by freezing the samples instantly at -30° C. for storing. Thereafter, the aqueous solution stored by freezing was thawed, analyzed on HPLC, and determined for the remaining content of the acyl derivatives based on the absorbance at a wavelength of 254 nm.

[3] = Radical-entrapping ability (DPPH oxidation-inhibitory activity); format: biochemical; conditions: for EC50: DPPH, ambient temperature, 20 min, read-out: EC50 (50% oxidation-inhibitory-concentration); for Oxidation inhibitory effect (%): sample concentration 10^-4 M
Method: In parallel, as a control, a system using a 60 v/v % aqueous ethanol solution was provided in place of the test samples, and treated similarly as in the case of the acyl derivatives. The percentage (%) of the absorbance of the test samples to that of the control was regarded as an oxidation-inhibitory activity, and the activity was used as an index of radical-entrapping ability. The 50% oxidation-inhibitory-concentration (EC50) was calculated based on a logarithmic value of a concentration of the test sample used and on an oxidation-inhibitory ability shown by the sample at the concentration.

[4] = test system: artificial skin (TESTSKIN, human-skin-restructuring-model); assay: Skin permeation test using TESTSKIN; conditions: 10 mM, 37° C., peak levels
[5] = Dynamic test, intravenous administration to rats (blood level); format: in vivo, Male Wister/ST rats
Method: Male Wister/ST rats, 12-14-week-old, were fasted for 16 hours and, under an anesthetic, 200-μl blood was taken from their hearts using a syringe injected with a physiological saline containing 600 units/ml heparin. […] Just after the administration and after a prescribed period of time from the administration, blood was taken from the rats similarly as above at a prescribed time interval, and the blood taken was admixed with an adequate amount of heparin and instantly centrifuged at 4° C. to collect supernatants.

SMILES: CCCCCCCCCC(=O)OC[C@H](O)[C@H]1OC(=O)C(O[C@H]2O[C@H](CO)[C@@H](O)[C@H](O)[C@H]2O)=C1O [Example 6-Deca-AA-2G, 6-O-decanoyl-2-O-α-D-monoglucopyranosyl-L-ascorbic acid]
- EC50 [3]: 73 µM
- Oxidation inhibitory effect (%) [3]: 67.5%

SMILES: CCCCCC(=O)OC[C@H](O)[C@H]1OC(=O)C(O[C@H]2O[C@H](CO)[C@@H](O)[C@H](O)[C@H]2O)=C1O [Example 6-Hexa-AA-2G, 2-O-α-D-monoglucopyranosyl-6-O-hexanoyl-L-ascorbic acid]
- EC50 [3]: 91 µM
- Oxidation inhibitory effect (%) [3]: 55.1%

SMILES: CCCCCCCC(=O)OC[C@H](O)[C@H]1OC(=O)C(O[C@H]2O[C@H](CO)[C@@H](O)[C@H](O)[C@H]2O)=C1O [Example 6-Octa-AA-2G, 2-O-α-D-monoglucopyranosyl-6-O-octanoyl-L-ascorbic acid]
- days needed to recover maximum body weight before initiating the administration [1]: six
- blood level of 2-O-α-D-monoglucopyranosyl-L-ascorbic acid after its maximum, when administered with 6-Octa-AA-2G ([5]; metabolite, after maximum): undetectable level
- concentration at 0.25 h ([5]; rat, blood, 15 min after administration, read-out: blood level of 6-Octa-AA-2G): 38.2 µM
- concentration at 2 min ([5]; rat, blood, two minutes after administration, read-out: blood level of 6-Octa-AA-2G): 525 µM
- blood level of L-ascorbic acid compared with 2-O-α-D-monoglucopyranosyl-L-ascorbic acid ([5]; throughout experiment): exceeded
- EC50 [3]: 82.7 µM
- Oxidation inhibitory effect (%) [3]: 60.4%

Second part, led by results:

- degraded at 48 h [2]: 3.9%
- degraded at 336 h [2]: 1.6%
- EC50 [3]: 90.3 µM
SMILES: O=C1O[C@H]([C@@H](O)CO)C(O)=C1O[C@H]1O[C@H](CO)[C@@H](O)[C@H](O)[C@H]1O [AA 2G, 2-O-α-D-Monoglucopyranosyl-L-ascorbic acid]
- internal bleeding caused by scorbutus ([1]; anatomic finding): no such an observation
- blood level of alkaline phosphatase ([1]; blood): recovered almost to the normal level
- level of L-ascorbic acid in the blood ([1]; blood, numeral data excluded): recovered nearly to a normal level
- level of L-ascorbic acid in the liver ([1]; liver, numeral data excluded): recovered nearly to a normal level
- days needed to recover maximum body weight before initiating the administration [1]: eight
- Oxidation inhibitory effect (%) [3]: 55.4%

- degraded at 12 h [2]: 75.9%
- degraded at 72 h [2]: 68.3%
- EC50 [3]: 46.4 µM
SMILES: O=C1O[C@H]([C@@H](O)CO)C(O)=C1O [AsA, L-Ascorbic acid]
- Oxidation inhibitory effect (%) [3]: 93.7%

- EC50 [3]: 99.8 µM
SMILES: CCCC(=O)OC[C@H](O)[C@H]1OC(=O)C(O[C@H]2O[C@H](CO)[C@@H](O)[C@H](O)[C@H]2O)=C1O [Example 6-Buty-AA-2G, 6-O-butyryl-2-O-α-D-monoglucopyranosyl-L-ascorbic acid]
- Oxidation inhibitory effect (%) [3]: 50.1%

- skin permeability (peak level) relative to L-ascorbic acid [4]: 7 times
- EC50 [3]: 63.2 µM
SMILES: CCCCCCCCCCCC(=O)OC[C@H](O)[C@H]1OC(=O)C(O[C@H]2O[C@H](CO)[C@@H](O)[C@H](O)[C@H]2O)=C1O [Example 6-Dode-AA-2G, 6-O-dodecanoyl-2-O-α-D-monoglucopyranosyl-L-ascorbic acid]
- Oxidation inhibitory effect (%) [3]: 78.3%
